Results taken from patent publication US20150010928A1, “MEANS AND METHODS FOR ASSESSING AN ENDOCRINE DISEASE OR DISORDER” (priority 2012, published 2015).
Counter-ions that a name gives are not always drawn. Marks after values point to notes of the source that are not given here.

Key:
female rats = test: Plasma metabolite profiling (GC-MS, LC-MS, SPE-LC-MS) in female rats dosed once daily over 28 days (OECD 407); format: in vivo, rat; set-up: key to 5-O-Methylsphingosine (d18:1) / Isopalmitic acid (C16:0) / Valine / Alanine / Ketoleucine / Serine / Lactate / Arginine: ratio of treated group mean to untreated control mean; details: for Cholesterol / Choline plasmalogen No 02 / Lignoceric acid (C24:0) / Sphingomyelin (d18:1, C16:0) / Sphingomyelin (d18:2, C16:0) / erythro-Sphingosine (d18:1): Table 14a; for 3-O-Methylsphingosine (d18:1), ratio versus control / 5-O-Methylsphingosine (d18:1), ratio versus control / 16-Methylheptadecanoic acid, ratio versus control / 17-Methyloctadecanoic acid, ratio versus control / Arachidonic acid (C20:cis[5,8,11,14]4), ratio versus control / Behenic acid (C22:0), ratio versus control / Cholesterol, ratio versus control / Choline plasmalogen No 03, ratio versus control / Docosahexaenoic acid (C22:cis[4,7,10,13,16,19]6), ratio versus control / Galactose, lipid fraction, ratio versus control / Lignoceric acid (C24:0), ratio versus control / Lysophosphatidylcholine (C17:0), ratio versus control / Malate, ratio versus control / Nervonic acid (C24:cis[15]1), ratio versus control / Sphingomyelin (d18:2, C16:0), ratio versus control / Stearic acid (C18:0), ratio versus control / Tricosanoic acid (C23:0), ratio versus control / Uric acid, ratio versus control / alpha-Tocopherol, ratio versus control / erythro-Sphingosine (d18:1), ratio versus control / myo-Inositol, lipid fraction, ratio versus control / myo-Inositol-2-phosphate, lipid fraction, ratio versus control / threo-Sphingosine (d18:1), ratio versus control: female rats, plasma, low dose; for Alanine / Arginine / Ketoleucine / Lactate / Proline / Serine / Valine: Table 17b
Description: Each dose group in the studies consisted of five rats per sex. Additional groups of each 5 male and female animals served as controls. […] All animals of the animal population were kept under the same constant temperature (20-24±3° C.) and the same constant humidity (30-70%). The animals of the animal population were fed ad libitum. The food to be used was essentially free of chemical or microbial contaminants. Drinking water was also offered ad libitum. Accordingly, the water was free of chemical and microbial contaminants as laid down in the European Drinking Water Directive 98/83/EG. The illumination period was 12 hours light followed by 12 hours darkness (12 hours light, from 6:00 to 18:00, and 12 hours darkness, from 18:00 to 6:00). […] The test substances (compounds) in the Tables 1 to 17 below were dosed and administered as described in the Table 18.
In the morning of day 7, 14, and 28, blood was taken from the retroorbital venous plexus from fasted anaesthetized animals. From each animal, 1 ml of blood was collected with EDTA as anticoagulant. The samples were centrifuged for generation of plasma. All plasma samples were covered with a N2 atmosphere and then stored at −80° C. until analysis.
For mass spectrometry-based metabolite profiling analyses plasma samples were extracted and a polar and a non-polar (lipid) fraction was obtained. For GC-MS analysis, the non-polar fraction was treated with methanol under acidic conditions to yield the fatty acid methyl esters. Both fractions were further derivatised with O-methyl-hydroxyamine hydrochloride and pyridine to convert Oxogroups to O-methyloximes and subsequently with a silylating agent before analysis. In LC-MS analysis, both fractions were reconstituted in appropriate solvent mixtures. HPLC was performed by gradient elution on reversed phase separation columns. Mass spectrometric detection which allows target and high sensitivity MRM (Multiple Reaction Monitoring) profiling in parallel to a full screen analysis was applied as described in WO2003073464.
Steroids and their metabolites were measured by online SPE-LC-MS (Solid phase extraction-LC-MS).
Following comprehensive analytical validation steps, the data for each analyte were normalized against data from pool samples. These samples were run in parallel through the whole process to account for process variability. The significance of treatment group values specific for sex, treatmentduration and metabolite was determined by comparing means of the treated groups to the means of the respective untreated control groups using WELCH-test and quantified with treatment ratios versus control and p-values.
The identification of the most important biomarkers per toxicity pattern was done by a ranking of the analytes in the tables below. Therefore the metabolic changes in reference treatments of a given pattern (shown in the table) were compared with changes of the same metabolite in other unrelated treatments. […] The maximum absolute value of the respective TVALUE was taken to indicate the most important metabolite for the pattern.

male rats = test: Plasma metabolite profiling (GC-MS, LC-MS, SPE-LC-MS) in male rats dosed once daily over 28 days (OECD 407); format: in vivo, rat; details: male rats, plasma, high dose, day 7
Method in brief: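 Polar and lipid fractions profiled by GC-MS and LC-MS/MRM, steroids by online SPE-LC-MS; pool-normalized data compared to controls by Welch test as treatment ratios and p-values.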

SMILES: CCC(=O)Oc1ccc(/C(CC)=C(\CC)c2ccc(OC(=O)CC)cc2)cc1 [Diethylstilboestrol dipropionate]
- Cholesterol (female rats; f7, high dose): 0.48 *
- Choline plasmalogen No 02 (female rats; f7, high dose): 0.7 *
- Lignoceric acid (C24:0) (female rats; f7, high dose): 0.49 *
- Sphingomyelin (d18:1, C16:0) (female rats; f7, high dose): 0.72 *
- Sphingomyelin (d18:2, C16:0) (female rats; f7, high dose): 0.67 *
- erythro-Sphingosine (d18:1) (female rats; f7, high dose): 0.38 *
- Cholesterol (female rats; f14, high dose): 0.69 *
- Choline plasmalogen No 02 (female rats; f14, high dose): 0.75 *
- Lignoceric acid (C24:0) (female rats; f14, high dose): 0.6 *
- Sphingomyelin (d18:1, C16:0) (female rats; f14, high dose): 0.59^
- Sphingomyelin (d18:2, C16:0) (female rats; f14, high dose): 0.71 *
- erythro-Sphingosine (d18:1) (female rats; f14, high dose): 0.67 *
- Cholesterol (female rats; f28, high dose): 0.58 *
- Choline plasmalogen No 02 (female rats; f28, high dose): 0.67 *
- Lignoceric acid (C24:0) (female rats; f28, high dose): 0.59 *
- Sphingomyelin (d18:1, C16:0) (female rats; f28, high dose): 0.73 *
- Sphingomyelin (d18:2, C16:0) (female rats; f28, high dose): 0.58 *
- erythro-Sphingosine (d18:1) (female rats; f28, high dose): 0.46 *

SMILES: O=c1c(-c2ccc(O)cc2)coc2cc(O)cc(O)c12 [Genistein]
- 3-O-Methylsphingosine (d18:1), ratio versus control (female rats; day 7): 0.25 *
- 5-O-Methylsphingosine (d18:1), ratio versus control (female rats; day 7): 0.27 *
- 16-Methylheptadecanoic acid, ratio versus control (female rats; day 7): 0.64 *
- 17-Methyloctadecanoic acid, ratio versus control (female rats; day 7): 0.7 *
- Arachidonic acid (C20:cis[5,8,11,14]4), ratio versus control (female rats; day 7): 0.59 *
- Behenic acid (C22:0), ratio versus control (female rats; day 7): 0.45 *
- Cholesterol, ratio versus control (female rats; day 7): 0.55 *
- Choline plasmalogen No 03, ratio versus control (female rats; day 7): 0.74 *
- Docosahexaenoic acid (C22:cis[4,7,10,13,16,19]6), ratio versus control (female rats; day 7): 0.52 *
- Galactose, lipid fraction, ratio versus control (female rats; day 7): 0.51 *
- Lignoceric acid (C24:0), ratio versus control (female rats; day 7): 0.45 *
- Lysophosphatidylcholine (C17:0), ratio versus control (female rats; day 7): 0.8 *
- Malate, ratio versus control (female rats; day 7): 0.98 *
- Nervonic acid (C24:cis[15]1), ratio versus control (female rats; day 7): 0.45 *
- Sphingomyelin (d18:2, C16:0), ratio versus control (female rats; day 7): 0.55 *
- Stearic acid (C18:0), ratio versus control (female rats; day 7): 0.63 *
- Tricosanoic acid (C23:0), ratio versus control (female rats; day 7): 0.32 *
- Uric acid, ratio versus control (female rats; day 7): 0.73 *
- alpha-Tocopherol, ratio versus control (female rats; day 7): 0.5 *
- erythro-Sphingosine (d18:1), ratio versus control (female rats; day 7): 0.29 *
- myo-Inositol, lipid fraction, ratio versus control (female rats; day 7): 0.62 *
- myo-Inositol-2-phosphate, lipid fraction, ratio versus control (female rats; day 7): 0.48 *
- threo-Sphingosine (d18:1), ratio versus control (female rats; day 7): 0.33 *
- 3-O-Methylsphingosine (d18:1), ratio versus control (female rats; day 14): 0.55 *
- 5-O-Methylsphingosine (d18:1), ratio versus control (female rats; day 14): 0.58 *
- 16-Methylheptadecanoic acid, ratio versus control (female rats; day 14): 0.72 *
- 17-Methyloctadecanoic acid, ratio versus control (female rats; day 14): 0.73 *
- Arachidonic acid (C20:cis[5,8,11,14]4), ratio versus control (female rats; day 14): 0.66 *
- Behenic acid (C22:0), ratio versus control (female rats; day 14): 0.52 *
- Cholesterol, ratio versus control (female rats; day 14): 0.66 *
- Choline plasmalogen No 03, ratio versus control (female rats; day 14): 0.8 *
- Docosahexaenoic acid (C22:cis[4,7,10,13,16,19]6), ratio versus control (female rats; day 14): 0.71 *
- Galactose, lipid fraction, ratio versus control (female rats; day 14): 0.66 *
- Lignoceric acid (C24:0), ratio versus control (female rats; day 14): 0.53 *
- Lysophosphatidylcholine (C17:0), ratio versus control (female rats; day 14): 0.9 *
- Malate, ratio versus control (female rats; day 14): 0.75 *
- Nervonic acid (C24:cis[15]1), ratio versus control (female rats; day 14): 0.7 *
- Sphingomyelin (d18:2, C16:0), ratio versus control (female rats; day 14): 0.74 *
- Stearic acid (C18:0), ratio versus control (female rats; day 14): 0.83 *
- Tricosanoic acid (C23:0), ratio versus control (female rats; day 14): 0.65 *
- Uric acid, ratio versus control (female rats; day 14): 0.72 *
- alpha-Tocopherol, ratio versus control (female rats; day 14): 0.65 *
- erythro-Sphingosine (d18:1), ratio versus control (female rats; day 14): 0.61 *
- myo-Inositol, lipid fraction, ratio versus control (female rats; day 14): 0.76 *
- myo-Inositol-2-phosphate, lipid fraction, ratio versus control (female rats; day 14): 0.66^
- threo-Sphingosine (d18:1), ratio versus control (female rats; day 14): 0.65 *
- 3-O-Methylsphingosine (d18:1), ratio versus control (female rats; day 28): 0.44 *
- 5-O-Methylsphingosine (d18:1), ratio versus control (female rats; day 28): 0.47 *
- 16-Methylheptadecanoic acid, ratio versus control (female rats; day 28): 0.69 *
- 17-Methyloctadecanoic acid, ratio versus control (female rats; day 28): 0.86 *
- Arachidonic acid (C20:cis[5,8,11,14]4), ratio versus control (female rats; day 28): 0.46 *
- Behenic acid (C22:0), ratio versus control (female rats; day 28): 0.57 *
- Cholesterol, ratio versus control (female rats; day 28): 0.43 *
- Choline plasmalogen No 03, ratio versus control (female rats; day 28): 0.57 *
- Docosahexaenoic acid (C22:cis[4,7,10,13,16,19]6), ratio versus control (female rats; day 28): 0.43 *
- Galactose, lipid fraction, ratio versus control (female rats; day 28): 0.62 *
- Lignoceric acid (C24:0), ratio versus control (female rats; day 28): 0.44 *
- Lysophosphatidylcholine (C17:0), ratio versus control (female rats; day 28): 0.81 *
- Malate, ratio versus control (female rats; day 28): 0.66 *
- Nervonic acid (C24:cis[15]1), ratio versus control (female rats; day 28): 0.43 *
- Sphingomyelin (d18:2, C16:0), ratio versus control (female rats; day 28): 0.62 *
- Stearic acid (C18:0), ratio versus control (female rats; day 28): 0.66 *
- Tricosanoic acid (C23:0), ratio versus control (female rats; day 28): 0.42 *
- Uric acid, ratio versus control (female rats; day 28): 0.57 *
- alpha-Tocopherol, ratio versus control (female rats; day 28): 0.46 *
- erythro-Sphingosine (d18:1), ratio versus control (female rats; day 28): 0.51 *
- myo-Inositol, lipid fraction, ratio versus control (female rats; day 28): 0.75 *
- myo-Inositol-2-phosphate, lipid fraction, ratio versus control (female rats; day 28): 0.54 *
- threo-Sphingosine (d18:1), ratio versus control (female rats; day 28): 0.57 *

SMILES: C#C[C@]1(OC(C)=O)CC[C@H]2[C@@H]3CCC4=CC(=O)CC[C@@H]4[C@H]3CC[C@@]21C [Norethindrone acetate]
- Cholesterol (female rats; f7, high dose): 0.17 *
- Choline plasmalogen No 02 (female rats; f7, high dose): 0.3 *
- Lignoceric acid (C24:0) (female rats; f7, high dose): 0.27^
- Sphingomyelin (d18:1, C16:0) (female rats; f7, high dose): 0.12 *
- Sphingomyelin (d18:2, C16:0) (female rats; f7, high dose): 0.19 *
- erythro-Sphingosine (d18:1) (female rats; f7, high dose): 0.03 *
- Alanine, ratio versus control (male rats): 0.88 *
- Androstenedione, ratio versus control (male rats): 0.42 *
- Cholesterol, ratio versus control (male rats): 0.28 *
- Glycine, ratio versus control (male rats): 0.86 *
- Heptadecanoic acid (C17:0), ratio versus control (male rats): 0.56 *
- Testosterone, ratio versus control (male rats): 0.59 *
- Threonine, ratio versus control (male rats): 0.88 *
- Uric acid, ratio versus control (male rats): 0.7 *
- alpha-Tocopherol, ratio versus control (male rats): 0.32 *

SMILES: CN(CCOc1ccc(CC2SC(=O)NC2=O)cc1)c1ccccn1 (stereo not drawn) [Rosiglitazone maleate]
- Isopalmitic acid (C16:0) (female rats; f7, female rats, high dose, Table 17a): 1.46 *
- Alanine (female rats; f7, female rats, high dose): 0.83
- Arginine (female rats; f7, female rats, high dose): 0.85
- Ketoleucine (female rats; f7, female rats, high dose): 0.72
- Lactate (female rats; f7, female rats, high dose): 0.56
- Proline (female rats; f7, female rats, high dose): 0.91
- Serine (female rats; f7, female rats, high dose): 1
- Valine (female rats; f7, female rats, high dose): 0.92
- Alanine (female rats; f14, female rats, high dose): 0.81
- Arginine (female rats; f14, female rats, high dose): 0.73
- Ketoleucine (female rats; f14, female rats, high dose): 0.71
- Lactate (female rats; f14, female rats, high dose): 1.24
- Proline (female rats; f14, female rats, high dose): 0.81
- Serine (female rats; f14, female rats, high dose): 0.91
- Valine (female rats; f14, female rats, high dose): 0.72
- Isopalmitic acid (C16:0) (female rats; f28, female rats, high dose, Table 17a): 1.52 *
- Alanine (female rats; f28, female rats, high dose): 0.92
- Arginine (female rats; f28, female rats, high dose): 0.93
- Ketoleucine (female rats; f28, female rats, high dose): 0.67
- Lactate (female rats; f28, female rats, high dose): 0.65
- Proline (female rats; f28, female rats, high dose): 1.03
- Serine (female rats; f28, female rats, high dose): 1.06
- Valine (female rats; f28, female rats, high dose): 0.98
- Isopalmitic acid (C16:0) (female rats; rat, in vivo): 1.41 *
